Laboratory results as given in patent US5736376A, “Recombinant endothelin converting enzyme-2 and its use in ECE inhibitor screening” (Board of Regents, The University of Texas System, priority 1995, dated 1998).
Where two headings read alike, the source gives them in different places.

What was measured:
ECE-2 [1] = target: T1, ECE-2 (Bos taurus, UniProt P0DPE2); assay: Protease inhibitor assay of ECE-2, solubilized CHO/ECE-2 membranes, big ET-1 conversion, pH 5.5; type: biochemical, bovine; settings: in vitro (test tube), pH 5.5
T1 construct: solubilized crude membranes or live cells
Experimental: In all subsequent studies, ECE-2 assays were performed at pH 5.5.
Solubilized crude membranes were prepared in parallel from CHO/ECE-2 and CHO/ECE-1 cells as described (Xu et al., 1994). For protease inhibitor studies, membranes were prepared without protease inhibitors. Standard reaction mixtures for the ECE-2 assay (50 μl) contained 0.1M 2-[N-morpholino]ethanesulfonic acid (MES) buffer (pH 5.5), 0.5M NaCl, 0.1 μM human big ET-1 and an enzyme fraction. […] For the inhibitor studies, the reactions were preincubated at 37° C. with protease inhibitor or vehicle for 15 min. Reactions were started by the addition of substrate, and incubated at 37° C. for 30 min in siliconized 0.5-ml microcentrifuge tubes. […] The mixture was then directly assayed for mature ET-1 as described (Suzuki et al., 1989). Duplicate assay wells were used for each enzyme reaction.

[2] = tested on: this family of metalloproteases; settings: Opgenorth et al., 1992; cited from earlier work
[3] = tested on: cultured endothelial cells; settings: cited from earlier work
ECE-1 [4] = target: T2, ECE-1 (Bos taurus, UniProt P42891); settings: high concentrations; Xu et al., 1994; cited from earlier work
T2 construct: made in house
T2 sequence (P42891 1-754): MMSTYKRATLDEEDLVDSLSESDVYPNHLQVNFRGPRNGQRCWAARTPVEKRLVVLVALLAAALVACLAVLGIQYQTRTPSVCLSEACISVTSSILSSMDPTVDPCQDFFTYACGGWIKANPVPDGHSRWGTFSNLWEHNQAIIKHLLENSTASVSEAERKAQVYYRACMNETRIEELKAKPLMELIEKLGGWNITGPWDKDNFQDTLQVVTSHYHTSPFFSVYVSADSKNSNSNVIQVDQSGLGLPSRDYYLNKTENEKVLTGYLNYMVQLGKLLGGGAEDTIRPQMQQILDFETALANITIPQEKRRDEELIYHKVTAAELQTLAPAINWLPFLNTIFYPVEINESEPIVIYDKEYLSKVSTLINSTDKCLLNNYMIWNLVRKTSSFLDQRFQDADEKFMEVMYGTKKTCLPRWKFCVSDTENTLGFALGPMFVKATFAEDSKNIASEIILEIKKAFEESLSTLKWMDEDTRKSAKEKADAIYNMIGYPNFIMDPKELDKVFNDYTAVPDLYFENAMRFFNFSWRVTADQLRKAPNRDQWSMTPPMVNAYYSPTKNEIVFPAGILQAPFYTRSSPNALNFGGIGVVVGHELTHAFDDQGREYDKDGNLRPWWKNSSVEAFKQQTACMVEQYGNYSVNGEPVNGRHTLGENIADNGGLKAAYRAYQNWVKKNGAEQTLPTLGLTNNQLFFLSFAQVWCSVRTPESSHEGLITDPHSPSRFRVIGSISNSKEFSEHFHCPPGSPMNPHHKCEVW

big endothelins = settings: whole animal preparations and isolated perfused tissues; cited from earlier work
ECE-2 [5] = target: T1, ECE-2; assay: Double-transfection live cell assay: mature ET-1 secretion by CHO/ECE-2 cells transfected with preproET-1 cDNA; type: cell-based, bovine; settings: production of mature ET-1; 12 h; ECE-2-preproET-1 double transfected cells; read-out: apparent IC50, live cell assay, CHO/ECE-2
Experimental: Production of mature ET-1 by CHO/ECE-2 cells transiently transfected with preproET-1 cDNA: Cleavage of endogenously produced big ET-1. Doubly transfected cells were cultured for 12 h in the absence or presence of the designated concentrations of ECE inhibitors, and mature ET-1 in the conditioned medium was determined. Negative control studies with parental CHO cells are shown by dashed lines.
CHO/ECE-2 cells and untransfected CHO cells were transiently transfected in parallel with a preproET-1 construct, and mature ET-1 secreted from these cells into the medium was determined by EIA.
CHO-K1 cells were cultured as described (Xu et al., 1994). Since many batches of tissue culture-grade trypsin preparations contained high levels of metalloprotease contaminants with an ECE-like activity, a highly purified crystallized preparation of trypsin (Sigma, Catalog No. T7418) was dissolved in phosphate-buffered saline at 0.013% (w/v) and used for all trypsinization procedures. […] Twelve hours after the transient transfection, cells were refed with fresh medium with or without ECE inhibitors. The medium was conditioned for an additional 12 h and directly subjected to enzyme immunoassay (EIA) for mature ET-1 (Suzuki et al., 1989).

ECE-1 [6] = target: T2, ECE-1; assay: Protease inhibitor assay of ECE-1, solubilized CHO/ECE-1 membranes, big ET-1 conversion, pH 6.8; type: biochemical, bovine; settings: sensitivity to protease inhibitors, Table 2
Experimental: Solubilized crude membranes were prepared in parallel from CHO/ECE-2 and CHO/ECE-1 cells as described (Xu et al., 1994). For protease inhibitor studies, membranes were prepared without protease inhibitors. Standard reaction mixtures for the ECE-2 assay (50 μl) contained 0.1M 2-[N-morpholino]ethanesulfonic acid (MES) buffer (pH 5.5), 0.5M NaCl, 0.1 μM human big ET-1 and an enzyme fraction. ECE-1 assay reactions contained 0.1M phosphate buffer (pH 6.8) instead of the MES buffer. For the pH profiling and isopeptide selectivity studies, the buffer solution (0.1M) or the substrate (0.1 μM) was substituted as designated. For the inhibitor studies, the reactions were preincubated at 37° C. with protease inhibitor or vehicle for 15 min. Reactions were started by the addition of substrate, and incubated at 37° C. for 30 min in siliconized 0.5-ml microcentrifuge tubes. […] The mixture was then directly assayed for mature ET-1 as described (Suzuki et al., 1989). Duplicate assay wells were used for each enzyme reaction. […] Protein concentrations were determined by the Bradford method (Bio-Rad) using IgG as standard.

T1 sequence (P0DPE2 97-883): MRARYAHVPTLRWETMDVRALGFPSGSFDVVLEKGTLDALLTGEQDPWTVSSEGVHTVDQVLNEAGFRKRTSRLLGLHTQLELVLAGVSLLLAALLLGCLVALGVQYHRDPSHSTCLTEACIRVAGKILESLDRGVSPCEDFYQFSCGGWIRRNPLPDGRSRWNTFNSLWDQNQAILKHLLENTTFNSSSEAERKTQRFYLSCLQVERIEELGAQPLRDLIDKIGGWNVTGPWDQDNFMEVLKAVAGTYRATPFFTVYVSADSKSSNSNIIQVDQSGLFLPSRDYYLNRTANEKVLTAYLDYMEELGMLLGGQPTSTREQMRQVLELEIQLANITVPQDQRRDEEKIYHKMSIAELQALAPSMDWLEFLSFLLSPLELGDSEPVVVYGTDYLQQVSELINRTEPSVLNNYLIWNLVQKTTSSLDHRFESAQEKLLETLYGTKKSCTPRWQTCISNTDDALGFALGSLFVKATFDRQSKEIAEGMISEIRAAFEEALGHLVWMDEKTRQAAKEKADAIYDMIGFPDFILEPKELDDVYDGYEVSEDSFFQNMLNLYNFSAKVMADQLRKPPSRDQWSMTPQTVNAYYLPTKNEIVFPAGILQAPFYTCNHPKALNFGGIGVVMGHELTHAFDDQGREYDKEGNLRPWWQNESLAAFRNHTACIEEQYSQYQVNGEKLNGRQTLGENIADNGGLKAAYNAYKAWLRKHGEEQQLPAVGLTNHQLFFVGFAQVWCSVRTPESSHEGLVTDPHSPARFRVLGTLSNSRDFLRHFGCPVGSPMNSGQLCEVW

CC(C)C[C@H](NP(=O)(O)O[C@@H]1O[C@@H](C)[C@H](O)[C@@H](O)[C@H]1O)C(=O)N[C@@H](Cc1c[nH]c2ccccc12)C(=O)O [Phosphoramidon]
IC50 (ECE-2 [1]): 0.004 µM | type of inhibition [2]: competitive inhibitor | inhibition of secretion of mature ET-1 / processing of endogenous big ET-1 (words) [3]: inhibit the secretion of mature ET-1 | inhibition of secretion of mature ET-1 / processing of endogenous big ET-1 (words) ([3]; listed as phosphoramidon): inhibited | inhibition of big ET-1 conversion in ECE-1/preproET-1 doubly transfected cells (ECE-1 [4]): capable of inhibiting the conversion of big ET-1 | inhibition of vasopressor actions of exogenous big endothelins (big endothelins): inhibited | IC50 (ECE-2 [5]): ~20 µM | inhibition of ECE-1 (ECE-1 [6]): inhibited
